{"source": "patent EP0574185B1", "about": "“PGE1 analogs” (NEWPHARMA INTERNATIONAL CORPORATION, priority 1992, dated 1993)", "key": {"Swiss mice": {"tested_on": "Swiss mice", "assay": "Exploratory activity in mice (open field)", "assay_type": "in vivo", "conditions": "i.p., control 88 ± 8, n=10", "experimental": "The effect of B-407 on the exploratory activity was evaluated in Swiss mice of 30 g to 40 g in an open-field of 40 cm x 40 cm x 25 cm divided in 9 quadrants. One mouse at a time was placed into the open field to assess its exploratory activity by counting the number of quadrants crossed in 4 consecutive periods of 3 minutes each.\nThe working protocol consisted of two experiments with 3 groups of 10 animals each. In both experiments, each group of mice were pretreated with B-407, 0 µg/kg, 30 µg/kg and 100 µg/kg five min prior to the test. In one experiment, the animals were treated, p.o., with a combination of the antispasmodics homatropine methylbromide (5 mg/kg) and papaverine (5 mg/kg) administered 10 min prior to B-407. In the other experiment, this treatment was replaced by saline solution. The two experiments were carried out at the same time.\nThe results were expressed as the average ± standard error of each group and the statistical significance of the differences were evaluated by means of the Student's-t-test."}, "[1]": {"tested_on": "isolated rat uterus under diestrous condition", "assay": "B1: effect on isolated uterus of diestrous rat with basal spontaneous contractions (cumulative curves, Krebs solution)", "set-up": "species or system Wistar rats", "conditions": "basal 5,85", "experimental": "(B1)- Concentration-response curves on isolated rat uterus under diestrous condition were carried out. Wistar rats weighing 250 g to 300 g were employed. The diestrous phase was detected by a daily vaginal smear. The uterus was dissected out and a portion of a horn was placed in a 10 ml organ bath in a similar way to that described in part A. The bath temperature was maintained at 37°C, bubbled with a mixture of 95 % O2 and 5 % CO2 in a Krebs nutrient solution. The organ was left to stabilize for one hour. The isolated uterus presented basal spontaneous contractions under these experimental conditions. Cumulative concentration-response curves were carried out with the addition of either 100 µl or 300 µl of solutions of either natural prostaglandins or B-407 in concentrations of 10^-10 M to 10^-6 M, each 15 minutes without any washing. Uterine contractions and quantitation were performed as described in (A). (B2)- Concentration-response curves in isolated uterus under diestrous (without any spontaneous contractions) were carried out. Sodium diclofenac was added to De Jalon nutrient solution to a final concentration of 4x10^-6 M. The organ was left to stabilize until the absence of spontaneous contractions. Non-cumulative concentration-response curves were obtained. Recordings of the contractions and their quantitation were performed as described in (A).\n(§1) The frequency and magnitude of the responses were globally evaluated by calculating the total area recorded at a fixed time period as will be further explained. The areas under the curve of the recording paper, over 15 minutes periods, were cut and weighed both in the concentration-response curves and in the potentiating experiments.\n(§2) The calibration was made by weighing a piece of paper which corresponded to a tension of 1 g at the working sensitivity along 2 minutes. Therefore, a relationship of area expressed in g/2 min was obtained and then the weights of the areas of the responses were transformed to unities of area. The results were expressed as the mean ± the standard error of the areas obtained. The statistical evaluation of the differences was carried out either by ANOVA or by Student's-t-test, as appropriate."}, "Swiss female mice": {"tested_on": "Swiss female mice", "assay": "Barbiturate sleeping time in mice", "assay_type": "in vivo", "conditions": "100 µg/kg,ip, 15 min before pentobarbital sodium 30 mg/kg i.p., n= 12", "experimental": "The effect of B-407 on the time of induction and time of duration of the barbiturate sleeping time was evaluated by determining the time of loss and recovery of the righting reflex. This was carried out in Swiss female mice weighing 20 g to 25 g.\nTwo groups of 12 mice each were used. One group was treated with B-407 (100 µg/kg, i.p.). Fifteen minutes later, pentobarbital sodium (30 mg/kg, i.p.) was administered. The time of onset (the loss of the righting reflex) and of duration (the elapsed time from the loss of the righting reflex up to its recovery from the barbiturate-induced sleeping) were determined. Full recovery of the righting reflex was assumed when the animal, placed on its back, could recover its normal position at least 3 times during one minute. The control mice group followed the same protocol, but received saline solution instead B-407. The results were expressed as the average ± standard error of each group and the statistical significance of the differences were evaluated by means of the Student's-t-test."}, "[2]": {"tested_on": "isolated uterus of estrogenized rats", "assay": "Effect on isolated uterus of estrogenized rats (non-cumulative concentration-response curves)", "set-up": "species or system Wistar rats", "conditions": "for Area (g of tension/2 min): average", "experimental": "Concentration-response curves were carried out on isolated uterus of estrogenized rats. Female Wistar rats weighing 250g to 300g were employed. The animals were pretreated with 0.1 mg/kg of estradiol, subcutaneously, 24 h before the experiment. The whole uterus was dissected and excised and a portion of 1 cm of one horn was incubated in a 10 ml organ bath, at 30°C, bubbled with a mixture of 95 % O2 plus 5 % CO2. The nutrient solution was De Jalon solution described in the International Pharmacopea II^nd Ed. and containing 4x10^-7 M sodium diclofenac. The organ was left to stabilize in the solution for one hour. No spontaneous contractions were detected under these experimental conditions. To carry out the concentration-response curves, volumes of solutions of either natural prostaglandins or B-407 were added in order to obtain concentrations in the organ bath between 10^-10 M and 3x10^-6 M. After 2 minutes, the organ was washed three times during a 15 minutes time period before adding the next test solution. In this way the concentration-response curves obtained were not cumulative [\"The rat uterus preparation\" in \"Pharmacological Experiments on Isolated Preparations\". E. and S. Livingstone Ltd. Edinburgh and London (1968), p. 92].\nRecording of the contractions of the isolated uterus were on a Berger polygraph with a FT03C transducer. The frequency and magnitude of the responses were globally evaluated by calculating the total area recorded at fixed time periods as will be further explained.\nas §1, §2"}}, "data": [{"smiles": "CCCCC(C)(O)C/C=C/[C@H]1[C@H](O)CC(=O)[C@@H]1CCCC/C=C/C(=O)OC", "note": "(mixture of isomers) [B-407, trans-Δ^2-15-deoxy-16-hydroxy-16-methyl PGE1 methyl ester]", "values": [{"measurement": "N° Quadrants/12 min", "setting": "Swiss mice; 30 µg/kg", "result": "87 ± 8"}, {"measurement": "N° Quadrants/12 min", "setting": "Swiss mice; 100 µg/kg, p < 0,05", "result": "48 ± 8"}, {"measurement": "Area (g of tension/2 min)", "setting": "[1]; 1x10^-6 M", "result": "6,46 g of tension/2 min"}, {"measurement": "Area (g of tension/2 min)", "setting": "[1]; 1x10^-7 M", "result": "7,38 g of tension/2 min"}, {"measurement": "Area (g of tension/2 min)", "setting": "[1]; 1x10^-8 M", "result": "6,88 g of tension/2 min"}, {"measurement": "Area (g of tension/2 min)", "setting": "[1]; 1x10^-9 M", "result": "6,14 g of tension/2 min"}, {"measurement": "Induction time", "setting": "Swiss female mice; control 4,52 ± 0,22, p < 0,02", "result": "3,75 ± 0,19 min"}, {"measurement": "Sleeping time", "setting": "Swiss female mice; control 27,8 ± 3,10, n.s.", "result": "29,7 ± 2,91 min"}, {"measurement": "Area (g of tension/2 min)", "setting": "[2]; 1x10^-6 M, n=6", "result": "1,13 g of tension/ 2 min"}, {"measurement": "Area (g of tension/2 min)", "setting": "[2]; 1x10^-7 M, n=6", "result": "0,31 g of tension/ 2 min"}, {"measurement": "Area (g of tension/2 min)", "setting": "[2]; 1x10^-8 M, n=6", "result": "0,20 g of tension/ 2 min"}, {"measurement": "Area (g of tension/2 min)", "setting": "[2]; 1x10^-9 M, n=6", "result": "0,12 g of tension/ 2 min"}, {"measurement": "Area (g of tension/2 min)", "setting": "[2]; 1x10^-10 M, n=6", "result": "0,14 g of tension/ 2 min"}, {"measurement": "Area (g of tension/2 min)", "setting": "[2]; 3x10^-6 M, n=5", "result": "0,67 g of tension/ 2 min"}, {"measurement": "times less potent than PGE1 on rat uterine contractility in vitro", "setting": "[2]; PGE1 results are not shown", "result": "about 4 times"}]}]}
